Assay results published in US8022225B2, “Triazole derivative” (Taisho Pharmaceutical Co., Ltd, priority 2004, dated 2011).

How the values were obtained:
human Edg-1(S1P1) [1] = molecular target: T1, human Edg-1(S1P1) (Homo sapiens, UniProt P21453); experiment: Membrane system binding test: inhibition of [33P]-S1P binding to the membrane fraction of Edg-1(S1P1) gene transferred HEK-293 cells; conditions: [33P]-S1P 0.1 nM
T1 construct: expressed in transfected cells; host or cells: HEK-293
How it was run: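 Compound tested at 10^−5 M final (0.1% DMSO) for blocking 0.1 nM [^33P]-S1P binding to S1P1-expressing HEK-293 membranes, 30 °C, 1 h. Radioactivity retained on filters was counted, and percent inhibition derived relative to vehicle binding, correcting for the background of non-transfected HEK-293 membranes.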

human Edg-1(S1P1) [2] = molecular target: T1, human Edg-1(S1P1); experiment: Cell system binding test: inhibition of [3H]-S1P binding to Edg-1(S1P1) gene transferred HEK-293 cells; conditions: [3H]-S1P 10 nM
[3] = 10 μM compound, membrane fraction of Edg-1(S1P1) gene transferred HEK-293 cells, read-out: Membrane system binding test % inhibition (10 μM)
[4] = 10 μM compound, read-out: Cell system binding test % inhibition (10 μM)
[5] = test compound 10^-5 M, 1 hour at 30° C., HEK-293 membrane fraction, read-out: Edg-1(S1P1) binding inhibition rate (membrane system binding test)
[6] = test compound 10^-5 M, 1 hour, read-out: Edg-1(S1P1) binding inhibition rate (cell system binding test)

T1 sequence (P21453 whole entry): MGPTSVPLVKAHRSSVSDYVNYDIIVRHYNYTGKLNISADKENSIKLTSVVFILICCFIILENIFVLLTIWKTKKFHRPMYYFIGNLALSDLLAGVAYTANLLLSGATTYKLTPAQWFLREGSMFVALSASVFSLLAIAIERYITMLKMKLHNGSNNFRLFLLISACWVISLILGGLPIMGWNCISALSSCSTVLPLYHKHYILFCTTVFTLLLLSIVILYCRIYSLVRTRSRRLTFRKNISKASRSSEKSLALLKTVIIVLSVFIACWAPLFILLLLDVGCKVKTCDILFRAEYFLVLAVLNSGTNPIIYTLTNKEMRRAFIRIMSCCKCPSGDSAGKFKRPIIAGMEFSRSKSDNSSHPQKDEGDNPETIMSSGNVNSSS

SMILES | melting point | inhibition at 10 µM (human Edg-1(S1P1) [1]; [3]) | inhibition at 10 µM (human Edg-1(S1P1) [2]; [4]) | inhibition at 10 µM (human Edg-1(S1P1) [1]; [5]) | inhibition at 10 µM (human Edg-1(S1P1) [2]; [6])
CCn1c(SC)nnc1[C@@H](C)NS(=O)(=O)c1ccc(Cl)cc1 [Compound 1, 4-chloro-N-{(1R)-1-[4-ethyl-5-(methylthio)-4H-1,2,4-triazol-3-yl]ethyl}benzenesulfonamide] | 176 to 177 °C | 72.3% | 89.8% |  | 
C=CCSc1nnc(C(CCC)NS(=O)(=O)c2ccc(Cl)cc2)n1C (centres unmarked) [Compound 125, N-{1-[(5-allylthio)-4-methyl-4H-1,2,4-triazol-3-yl]butyl}-4-chlorobenzenesulfonamide] | 161.5 to 162 °C | 52.4% | 69% |  | 
CCn1c([C@@H](C)NS(=O)(=O)c2ccc(Cl)cc2)nnc1S(C)(=O)=O [Compound 182, 4-Chloro-N-{(1R)-1-[4-ethyl-5-(methylsulfonyl)-4H-1,2,4-triazol-3-yl]ethyl}benzenesulfonamide] | 129 to 130 °C |  | 53.7% |  | 
CCCOc1nnc([C@@H](C)NS(=O)(=O)c2ccc(Cl)cc2)n1CC [Compound 183, 4-Chloro-N-[(1R)-1-(4-ethyl-5-propoxy-4H-1,2,4-triazol-3-yl)ethyl]benzenesulfonamide] | 150.5 to 151.5 °C | 97.7% | 89.2% |  | 
CCn1c(OC)nnc1[C@@H](C)NS(=O)(=O)c1ccccc1 [Compound 376, [(1R)-1-(4-Ethyl-5-methoxy-4H-[1,2,4]triazol-3-yl)ethyl]benzenesulfonamide] | 161 to 162 °C | 57.3% | 90.7% |  | 
CCn1c(OCC(F)(F)F)nnc1[C@@H](C)NS(=O)(=O)c1cccc(Br)c1 [Compound 491] |  |  |  | 75.7% | 88.9%
CCn1c(OCC(F)(F)F)nnc1[C@@H](C)NS(=O)(=O)c1ccc(Br)cc1 [Compound 492] |  |  |  | 87.9% | 104%
CCn1c(OCC(F)(F)F)nnc1[C@@H](C)NS(=O)(=O)c1ccc(C)c(C)c1 [Compound 493] |  |  |  | 88.3% | 105%
CCn1c(OCC(F)(F)F)nnc1[C@@H](C)NS(=O)(=O)c1ccc(C)c(F)c1 [Compound 494] |  |  |  | 87.1% | 102%
CCn1c(OCC(F)(F)F)nnc1[C@@H](C)NS(=O)(=O)c1ccc2ccccc2c1 [Compound 495] |  |  |  | 89.9% | 104%
CCn1c(OCC(F)(F)F)nnc1[C@@H](C)NS(=O)(=O)c1ccc(F)c(F)c1 [Compound 496] |  |  |  | 75.7% | 103%
CCn1c(OCC(F)(F)F)nnc1[C@@H](C)NS(=O)(=O)c1ccc2nsnc2c1 [Compound 499] |  |  |  | 89.1% | 107%
CCn1c(OCC(F)(F)F)nnc1[C@@H](C)NS(=O)(=O)c1ccc(C(F)(F)F)cc1 [Compound 500] |  |  |  | 81.6% | 103%
CCn1c(OCC(F)(F)F)nnc1[C@@H](C)NS(=O)(=O)c1cc(F)cc(F)c1 [Compound 501] |  |  |  | 55.4% | 102%
CCn1c(OCC(F)(F)F)nnc1[C@@H](C)NS(=O)(=O)c1ccc(Br)c(Br)c1 [Compound 502] |  |  |  | 86.3% | 108%
CCn1c(OCC(F)(F)F)nnc1[C@@H](C)NS(=O)(=O)c1cccc(OC(F)(F)F)c1 [Compound 504] |  |  |  | 54% | 96.6%
CCn1c(OCC(F)(F)F)nnc1[C@@H](C)NS(=O)(=O)c1ccc(I)cc1 [Compound 511] |  |  |  | 85.4% | 99%
CCn1c(OCC(F)(F)F)nnc1[C@@H](C)NS(=O)(=O)c1ccc(Br)c(C(F)(F)F)c1 [Compound 513] |  |  |  | 55.2% | 98.8%
CCc1ccc(S(=O)(=O)N[C@H](C)c2nnc(OCC(F)(F)F)n2CC)cc1 [Compound 515] |  |  |  | 62.4% | 103%
CCn1c(OCC(F)(F)F)nnc1[C@@H](C)NS(=O)(=O)c1cccc(OC)c1 [Compound 516] |  |  |  | 61.9% | 101%
CCn1c(OCC(F)(F)F)nnc1[C@@H](C)NS(=O)(=O)c1cc(F)c(Br)cc1F [Compound 517] |  |  |  | 42.7% | 93.7%
CCCn1c(OC)nnc1[C@@H](C)NS(=O)(=O)c1ccc(Cl)cc1 [Compound 541] |  |  |  | 75.8% | 97.1%
COc1nnc([C@@H](C)NS(=O)(=O)c2ccc(Cl)cc2)n1C1CC1 [Compound 543] |  |  |  | 101% | 93.1%

The next lines start with the values.

melting point | inhibition at 10 µM (human Edg-1(S1P1) [1]; [3]) | inhibition at 10 µM (human Edg-1(S1P1) [2]; [4]) | inhibition at 10 µM (human Edg-1(S1P1) [1]; [5]) | inhibition at 10 µM (human Edg-1(S1P1) [2]; [6]) | SMILES
169.5 to 172.5 °C | 48.8% | 60.6% |  |  | CCn1c(S)nnc1[C@@H](C)NS(=O)(=O)c1ccc(Cl)cc1 [Compound 90, 4-chloro-N-[(1R)-1-(4-ethyl-5-mercapto-4H-1,2,4-triazol-3-yl)ethyl]benzenesulfonamide]
142 to 143 °C | 57.4% | 75.8% |  |  | C=CCSc1nnc([C@@H](C)N(C)S(=O)(=O)c2ccc(Cl)cc2)n1CC [Compound 99, N-{(1R)-1-[5-(allylthio)-4-ethyl-4H-1,2,4-triazol-3-yl]ethyl}-4-chloro-N-methylbenzenesulfonamide]
 |  |  | 66.5% | 102% | CCn1c(OCC(F)(F)F)nnc1[C@@H](C)NS(=O)(=O)c1cccc(OC(F)F)c1 [Compound 497]
 |  |  | 88.5% | 104% | CCn1c(OCC(F)(F)F)nnc1[C@@H](C)NS(=O)(=O)c1cccc(Cl)c1C [Compound 498]
 |  |  | 73.3% | 104% | CCn1c(OCC(F)(F)F)nnc1[C@@H](C)NS(=O)(=O)c1cccc(C(F)(F)F)c1 [Compound 503]
 |  |  | 74.4% | 103% | CCn1c(OCC(F)(F)F)nnc1[C@@H](C)NS(=O)(=O)c1cccc(C)c1 [Compound 505]
 |  |  | 70.9% | 106% | CCn1c(OCC(F)(F)F)nnc1[C@@H](C)NS(=O)(=O)c1cc(Cl)c(Cl)s1 [Compound 510]
 |  |  | 71.5% | 105% | CCn1c(OCC(F)(F)F)nnc1[C@@H](C)NS(=O)(=O)c1ccc(F)cc1 [Compound 512]
 |  |  | 86.7% | 98.4% | CCn1c(OCC(F)(F)F)nnc1[C@@H](C)NS(=O)(=O)c1cccc(Cl)c1 [Compound 514]
 |  |  | 92.3% | 99.9% | COc1nnc([C@@H](C)NS(=O)(=O)c2ccc(Cl)cc2)n1C(C)C [Compound 542]
 |  |  | 100% | 47.5% | CCCCn1c(OC)nnc1[C@@H](C)NS(=O)(=O)c1ccc(Cl)cc1 [Compound 544]
